Measured values as given in US4762648A, “Monofunctional and bisfunctional anthraquinone-(oxy-2,3-oxidopropanes), processes for their preparation, and their use as drugs” (Hoechst Aktiengesellschaft, priority 1983, dated 1988).
In brackets after ≈: the same amount, converted by molar mass.

Legend:
[1] = system: L 1210 leukemia cells; experiment: Proliferation assay: incorporation of C-14-thymidine in L 1210 cells; format: cell-based; conditions: Mus musculus, read-out: Proliferation assay IC50
Experimental: The determination of the cytotoxic activity of the compounds described in the present patent is carried out on L 1210 leukemia cells of the mouse. Specifically, the following test systems were used:
In this in vitro method, after incubation of the cells with varying concentrations of the test substance a determination is carried out of the extent to which the cells can incorporate radioactively labelled DNA-precursors (for example C-14-labelled thymidine).
L 1210 Cells in the exponential growth phase (5×10^3 /ml in RPMI 1640) are incubated for 72 hours, in a microtitration plate, with different concentrations of the test substance (37° C., 5% CO2, 95% relative atmospheric humidity). Controls consist of cells which are incubated solely with fresh medium. All assays are carried out in quadruplicate. After 65 hours, 50 μl of C-14-thymidine (1.5 μc/ml) are added in order to radioactively label the DNA of the cell. After 7 hours' incubation, the cells are filtered off with suction, and the DNA is precipitated with 5% strength dichloroacetic acid and successively washed with water and methanol. After drying at 50° C., the radioactivity built into the DNA is determined after adding 5 ml of scintillation fluid.
The results are quoted as a ratio of the scintillation indices obtained after incubation with the test substance and obtained with the untreated control. From the measurements thus obtained, the dose/effect curve is determined and the IC50, i.e. the concentration which under test conditions reduces the incorporation of radioactive thymidine by 50% relative to the control, is determined graphically.

[2] = system: L 1210 leukemia cells; experiment: Colony formation of L 1210 leukemia cells in soft agar (stem cell assay); format: cell-based; conditions: Mus musculus
Experimental: In this test, cytostatically active substances produce a reduction of the number of colonies observed relative to an untreated control. Specifically, the test is carried out as follows:
500 Leukemia cells per plate are incubated with different concentrations of test substance for 1 hour at 37° C. The cells are then washed twice with McCoy 5a medium and finally, after addition of 0.3% of agar, poured out into Petri dishes. Controls are incubated with fresh medium only. In place of the 1-hour incubation, different concentrations of the test substance are in some cases mixed into the upper agar layer so as to achieve continuous exposure of the cells over the entire incubation period. After the agar has solidified, the plates are incubated in an incubating chamber for 7 days at 37° C. (5% CO2, 95% relative atmospheric humidity). Thereafter, the number of colonies formed which have a diameter of 60μ is counted. The results are quoted as the number of colonies in the treated agar plates expressed as a percentage of those in the untreated control. From the dose/effect curve thus obtained, the IC50 is determined and serves as a measure of the effectiveness of the substance.

[3] = Determination of acute toxicity, intraperitoneal; conditions: mouse, in vivo, ip, NMRI mice, day 14, Litchfield Wilcoxon
Experimental: To determine the acute toxicity, NMRI mice were injected intraperitoneally,on day 0, with different doses of the test substance suspended in 0.5 ml of 0.5% strength carboxymethylcellulose. Control groups were given solely 0.5 ml of carboxymethylcellulose solution. 5 Mice were employed per concentration of test substance. On day 14, the number of surviving mice is determined and the LD50 found therefrom by the Litchfield Wilcoxon method.

[4] = L1210, L 1210 cells, 72 hours, C-14-thymidine incorporation
[5] = L1210, 168 h, L 1210 colony formation in soft agar, continuous exposure, 7 days, read-out: Stem cell assay IC50, Incubation: Continuous
[6] = L1210, L 1210 colony formation in soft agar, 1 hour incubation, 7 days, read-out: Stem cell assay IC50, Incubation: 1 hour

SMILES | IC50 ([1]; L1210, 72 h) | IC50 ([2]; L1210, 168 h, read-out: Stem cell assay IC50, Incubation: Continuous) | IC50 ([2]; L1210, read-out: Stem cell assay IC50, Incubation: 1 hour) | LD50 at 336 h [3] | IC50 [1, 4] | IC50 [2, 5] | IC50 [2, 6]
COc1cccc2c1C(=O)c1c(O)c3c(c(O)c1C2=O)C[C@@](O)(C(=O)CO)C[C@@H]3O[C@H]1C[C@H](N)[C@H](O)[C@H](C)O1 [Adriamycin, reference compound] | 0.006 µg/mL (≈ 0.011 µM) | 0.02 µg/mL (≈ 0.0368 µM) | 0.044 µg/mL (≈ 0.081 µM) | 14 mg/kg | – | – | –
O=C1c2ccccc2C(=O)c2c(OCC3CO3)ccc(O)c21 (centres unmarked) [Example 3, 1-Hydroxy-anthraquinone-4-(oxy-2,3-oxido-propane)] | – | – | – | – | 0.028 µg/mL (≈ 0.0945 µM) | 0.03 µg/mL (≈ 0.101 µM) | 0.066 µg/mL (≈ 0.223 µM)
O=C1c2ccccc2C(=O)c2c(OCC3CO3)ccc(OCC3CO3)c21 (centres unmarked) [Example 4, Anthraquinone-1,4-bis-(oxy-2,3-oxido-propane)] | – | – | – | – | 0.0022 µg/mL (≈ 0.00624 µM) | 0.0033 µg/mL (≈ 0.00937 µM) | 0.004 µg/mL (≈ 0.0114 µM)
O=C1c2ccc(OCC3CO3)cc2C(=O)c2ccc(OCC3CO3)cc21 (centres unmarked) [Example 5, Anthraquinone-2,6-bis(oxy-2,3-oxido-propane)] | 0.0044 µg/mL (≈ 0.0125 µM) | – | – | 200 mg/kg | – | 0.01 µg/mL (≈ 0.0284 µM) | 0.0083 µg/mL (≈ 0.0236 µM)
O=C1c2cccc(OCC3CO3)c2C(=O)c2c(OCC3CO3)cccc21 (centres unmarked) [Example 8, Anthraquinone-1,8-bis-(oxy-2,3-oxido-propane)] | – | – | – | – | 0.028 µg/mL (≈ 0.0795 µM) | 0.0085 µg/mL (≈ 0.0241 µM) | 0.03 µg/mL (≈ 0.0851 µM)
